From ChEMBL document CHEMBL3137667, “[Drug-induced liver injury; fourteenth updated edition of the bibliographic database of liver injuries and related drugs]” (Gastroenterol Clin Biol, 2004)

How the values were obtained:
[1] = Highest frequency of moderate liver toxicity observed during clinical trials, expressed as a percentage. [column '% BIOL' in source]; conditions: human
[2] = Highest frequency of acute liver toxicity observed during clinical trials, expressed as a percentage. [column '% AIGUE' in source]; conditions: human
[3] = Times to onset, minimal and maximal, observed in the indexed observations. [column 'DELAI' in source]; conditions: human
[4] = human, serum
[5] = human, serum; remark: listed apart in the source
[6] = human
[7] = human; remark: listed apart in the source
[8] = human; remark: listed apart in the source
[9] = human, serum, 4383 h
[10] = human; remark: listed apart in the source
[11] = human; remark: listed apart in the source
[12] = human; remark: listed apart in the source
[13] = human; remark: listed apart in the source
[14] = human; remark: listed apart in the source
[15] = human; remark: listed apart in the source
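For Hepatotoxicity (association with vascular disease) in this document: count of indexed literature references reporting vascular liver injury in humans, e.g. peliosis hepatitis, hepatic veno-occlusive disease or Budd-Chiari syndrome.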
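For Hepatotoxicity (benign tumour) in this document: value is a count of indexed literature references citing a benign tumour confirmed by histopathology.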
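For Hepatotoxicity (choleostasis) in this document: human cholestatic liver injury, shown by histopathology or by peak ALT or AST elevation over alkaline phosphatase ratio below 2, value counts indexed literature reports.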
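For Hepatotoxicity (chronic liver disease) in this document: chronic liver injury confirmed by histopathology or persistently raised serum aminotransferase activity beyond 6 months, value given as the count of indexed literature references.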
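For Hepatotoxicity (cirrhosis) in this document: value is a count of indexed literature references reporting cirrhosis confirmed by histopathology.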
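For Hepatotoxicity (cytolytic) in this document: human cytolytic liver injury, shown by histopathology or by a ratio above 5 of peak ALT or AST elevation to alkaline phosphatase elevation, value counts indexed references.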
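For Hepatotoxicity (granulomatous hepatitis) in this document: value is a count of indexed literature references reporting granulomatous liver disease confirmed by histopathology.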
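For Hepatotoxicity (malignant tumour) in this document: malignant tumour confirmed by histopathology, value gives the count of indexed literature references reporting it.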
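For Hepatotoxicity (severe hepatitis) in this document: human clinical data: severe hepatitis, meaning potentially life-threatening liver failure or clinically observed cases, the value counts how many indexed literature references report it.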
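For Hepatotoxicity (steatosis) in this document: steatosis confirmed by histopathology, value is the count of indexed references.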

Molecule | Hepatotoxicity (moderate) [1] [%] | Hepatotoxicity (acute) [2] [%] | Hepatotoxicity (time to onset) [3] | Hepatotoxicity (moderate) [4] | Hepatotoxicity (acute) [5] | Hepatotoxicity (cytolytic) [6] | Hepatotoxicity (choleostasis) [7] | Hepatotoxicity (severe hepatitis) [8] | Hepatotoxicity (chronic liver disease) [9] | Hepatotoxicity (cirrhosis) [10] | Hepatotoxicity (granulomatous hepatitis) [11] | Hepatotoxicity (association with vascular disease) [12] | Hepatotoxicity (steatosis) [13] | Hepatotoxicity (malignant tumour) [14] | Hepatotoxicity (benign tumour) [15] | other results
CCC1(C)CC(=O)NC1=O (stereo not given) [ETHOSUXIMIDE] | 0 | 0 | 1 month | 2 | 0 | 0 | 0 | 0 | 0 | 0 | 0 | 0 | 0 | 0 | 0 | 
NCc1ccccc1CC(=O)N[C@@H]1C(=O)N2C(C(=O)O)=C(CSc3nnnn3CC(=O)O)CS[C@H]12 [CEFORANIDE] | 42.9 | 3.4 | 5 days - 3 weeks | 6 | 2 | 2 | 1 | 0 | 0 | 0 | 0 | 0 | 0 | 0 | 0 | 
COc1ccccc1OCCNCC(O)COc1cccc2[nH]c3ccccc3c12 (stereo not given) [CARVEDILOL] |  |  | 6 months | 0 | 1 | 1 | 1 |  | 0 | 0 | 0 | 0 | 0 | 0 | 0 | Hepatotoxicity (moderate) ([1]; Liver): 0%; Hepatotoxicity (acute) ([2]; Liver): 0%; Hepatotoxicity (severe hepatitis) ([8]; Liver): 0
C[C@]12CCC(=O)C=C1CC[C@@H]1[C@@H]2[C@@H](O)C[C@@]2(C)[C@H]1CC[C@]2(O)C(=O)CO [HYDROCORTISONE] | 25 | 0 | 2 months | 1 | 0 | 0 | 0 | 1 | 0 | 0 | 0 | 0 | 10 | 0 | 0 | 
C=CCOc1ccccc1OCC(O)CNC(C)C (stereo not given) [OXPRENOLOL] |  |  | 1 day - 15 days | 1 | 1 |  |  |  | 0 | 0 |  | 0 | 0 | 0 | 0 | Hepatotoxicity (moderate) ([1]; Liver): 0%; Hepatotoxicity (acute) ([2]; Liver): 0%; Hepatotoxicity (cytolytic) ([6]; Liver): 1; Hepatotoxicity (choleostasis) ([7]; Liver): 0; Hepatotoxicity (severe hepatitis) ([8]; Liver): 0; Hepatotoxicity (granulomatous hepatitis) ([11]; Liver): 0
[H]/N=C(\N/C(=N/[H])Nc1ccc(Cl)cc1)NC(C)C [PROGUANIL] | 16 | 0 | 6 weeks | 1 | 1 | 1 | 0 | 0 | 0 | 0 | 0 | 0 | 0 | 0 | 0 | 
CN[C@H](CC(C)C)C(=O)N[C@H]1C(=O)N[C@@H](CC(N)=O)C(=O)N[C@H]2C(=O)N[C@H]3C(=O)N[C@H](C(=O)N[C@H](C(=O)O)c4cc(O)cc(O)c4-c4cc3ccc4O)[C@H](O)c3ccc(c(Cl)c3)Oc3cc2cc(c3O[C@@H]2O[C@H](CO)[C@@H](O)[C@H](O)[C@H]2O[C@H]2C[C@](C)(N)[C@H](O)[C@H](C)O2)Oc2ccc(cc2Cl)[C@H]1O [VANCOMYCIN] | 50 | 0 | 4 days | 9 | 1 | 1 | 0 | 0 | 0 | 0 | 0 | 0 | 0 | 0 | 0 | 
SPIRAMYCIN | 0 | 0 | 1 day - 4 weeks | 0 | 4 | 0 | 3 | 0 | 0 | 0 | 0 | 0 | 0 | 0 | 0 | 
[AsH3] [ARSENIC] |  |  | 46 years | 4 | 1 |  |  |  | 1 | 1 |  | 0 | 0 | 1 | 0 | Hepatotoxicity (moderate) ([1]; Liver): 35.7%; Hepatotoxicity (acute) ([2]; Liver): 47.6%; Hepatotoxicity (cytolytic) ([6]; Liver): 0; Hepatotoxicity (choleostasis) ([7]; Liver): 0; Hepatotoxicity (severe hepatitis) ([8]; Liver): 0; Hepatotoxicity (granulomatous hepatitis) ([11]; Liver): 0
CCOC(=O)[C@H](CCc1ccccc1)N[C@H]1CCCN2CCC[C@@H](C(=O)O)N2C1=O [CILAZAPRIL] | 1.2 | 0 | 2 months | 1 | 0 | 0 | 0 | 0 | 0 | 0 | 0 | 0 | 0 | 0 | 0 | 
CC[C@@H](CO)NC(=O)[C@@H]1C=C2c3cccc4[nH]cc(c34)C[C@H]2N(C)C1 [METHYLERGONOVINE] | 0 | 0 | 0.12 days | 1 | 0 | 0 | 0 | 0 | 0 | 0 | 0 | 0 | 0 | 0 | 0 | 
